The text below walks through data of article PMC11207571, “Applicability of MDR1 Overexpressing Abcb1KO-MDCKII Cell Lines for Investigating In Vitro Species Differences and Brain Penetration Prediction” (Pharmaceutics, 2024).

Structures are written as SMILES.

Data set [1] can be described thus: Bidirectional transport assay, efflux ratio in Abcb1KO-MDCKII-Mock control cells. As to conditions: dog, MDCK, pH 7.4. The method, then: (§1) Eluent A consisted of 0.1% formic acid in water, eluent B consisted of 0.1% formic acid in acetonitrile. Then, 10 µL samples were injected into the HPLC-MS/MS system. Mass spectrometric detection was performed in SRM mode, and ion transitions for each analyte were optimized during method development. Samples were analyzed in pools, with each pool containing three to four analytes.

In the next data set the target is human MDR1 (Homo sapiens, UniProt P08183). In words: Bidirectional transport assay, efflux ratio in Abcb1KO-MDCKII hMDR1 cells. The note with it: human, MDCK-MDR1, pH 7.4. The method, then: as §1
Sequence of human MDR1 (P08183 whole entry): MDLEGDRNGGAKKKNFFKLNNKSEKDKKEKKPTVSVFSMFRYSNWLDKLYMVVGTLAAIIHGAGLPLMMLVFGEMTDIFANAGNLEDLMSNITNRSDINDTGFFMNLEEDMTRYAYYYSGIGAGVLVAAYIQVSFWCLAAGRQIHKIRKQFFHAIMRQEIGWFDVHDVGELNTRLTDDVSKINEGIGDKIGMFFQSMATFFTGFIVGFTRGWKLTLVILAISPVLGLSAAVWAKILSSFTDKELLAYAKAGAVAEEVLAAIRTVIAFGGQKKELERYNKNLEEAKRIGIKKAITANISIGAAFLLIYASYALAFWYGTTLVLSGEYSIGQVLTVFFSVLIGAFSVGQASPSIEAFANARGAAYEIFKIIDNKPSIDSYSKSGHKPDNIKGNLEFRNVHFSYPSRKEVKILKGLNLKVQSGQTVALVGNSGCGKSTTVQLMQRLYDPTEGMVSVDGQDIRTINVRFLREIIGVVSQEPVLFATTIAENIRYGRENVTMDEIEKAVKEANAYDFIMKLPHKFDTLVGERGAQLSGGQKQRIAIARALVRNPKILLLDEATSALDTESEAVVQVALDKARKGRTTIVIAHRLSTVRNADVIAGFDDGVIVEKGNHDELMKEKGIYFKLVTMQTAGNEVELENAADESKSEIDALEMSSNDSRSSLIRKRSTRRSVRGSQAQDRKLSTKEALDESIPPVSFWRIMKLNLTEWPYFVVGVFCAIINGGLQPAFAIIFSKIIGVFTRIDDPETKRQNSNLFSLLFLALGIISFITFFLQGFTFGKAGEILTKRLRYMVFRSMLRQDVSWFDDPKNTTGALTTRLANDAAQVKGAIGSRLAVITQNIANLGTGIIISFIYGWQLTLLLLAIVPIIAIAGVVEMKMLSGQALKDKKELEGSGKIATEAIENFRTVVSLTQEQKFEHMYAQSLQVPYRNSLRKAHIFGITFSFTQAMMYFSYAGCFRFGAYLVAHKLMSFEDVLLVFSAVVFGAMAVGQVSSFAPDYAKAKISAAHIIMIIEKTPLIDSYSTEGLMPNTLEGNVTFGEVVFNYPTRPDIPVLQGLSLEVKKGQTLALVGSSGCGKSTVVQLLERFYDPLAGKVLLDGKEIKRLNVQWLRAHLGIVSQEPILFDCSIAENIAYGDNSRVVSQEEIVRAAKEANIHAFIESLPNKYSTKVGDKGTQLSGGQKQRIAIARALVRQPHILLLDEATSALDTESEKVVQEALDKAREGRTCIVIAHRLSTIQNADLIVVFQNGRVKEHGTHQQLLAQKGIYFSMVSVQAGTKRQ
The next data set addresses cynomolgus monkey Mdr1 (Macaca fascicularis, UniProt Q8HZQ6). In words: Bidirectional transport assay, efflux ratio in Abcb1KO-MDCKII cyMDR1 cells. As to conditions: cynomolgus monkey, pH 7.4. The method, then:
as §1

The next data set has as its target rat Mdr1a (Rattus norvegicus, UniProt Q6PSM0). In words: Bidirectional transport assay, efflux ratio in Abcb1KO-MDCKII rMDR1 cells. As to conditions: rat, pH 7.4. The method, then: as §1
A further data set addresses mouse Mdr1a (Mus musculus, UniProt P21447). As to the kind of experiment: Bidirectional transport assay, efflux ratio in Abcb1KO-MDCKII mMDR1 cells. As to conditions: mouse, pH 7.4. The procedure:
as §1

Another data set has as its target T1, human BCRP (Homo sapiens, UniProt Q9UNQ0).
T1 sequence (Q9UNQ0 1-655): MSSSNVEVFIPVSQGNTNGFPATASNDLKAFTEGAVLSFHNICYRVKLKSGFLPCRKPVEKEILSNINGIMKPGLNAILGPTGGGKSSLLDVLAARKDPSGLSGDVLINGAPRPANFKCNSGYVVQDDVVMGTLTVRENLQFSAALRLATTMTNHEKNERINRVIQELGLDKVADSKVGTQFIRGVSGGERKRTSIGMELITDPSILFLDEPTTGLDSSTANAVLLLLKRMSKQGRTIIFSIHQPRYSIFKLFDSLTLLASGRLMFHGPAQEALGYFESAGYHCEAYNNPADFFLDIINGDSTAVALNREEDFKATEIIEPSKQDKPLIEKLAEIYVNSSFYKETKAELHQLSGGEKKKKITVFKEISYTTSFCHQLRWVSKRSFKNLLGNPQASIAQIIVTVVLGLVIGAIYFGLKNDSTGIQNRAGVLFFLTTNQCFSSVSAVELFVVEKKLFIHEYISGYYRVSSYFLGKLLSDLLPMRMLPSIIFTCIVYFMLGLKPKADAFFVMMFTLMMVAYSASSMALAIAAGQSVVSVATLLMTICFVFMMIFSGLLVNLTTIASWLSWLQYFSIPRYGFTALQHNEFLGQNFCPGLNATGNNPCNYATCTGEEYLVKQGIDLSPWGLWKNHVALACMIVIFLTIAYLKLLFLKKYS
As to the kind of experiment: Bidirectional transport assay, efflux ratio in MDCKII-BCRP cells. The note with it: for efflux ratio at 120 min, 1 µM: human, pH 7.4. The method, then:
as §1

In general, efflux ratio refers to a quotient of directional permeabilities that is used to spot active efflux.

Sequence of cynomolgus monkey Mdr1 (Q8HZQ6 1-1283): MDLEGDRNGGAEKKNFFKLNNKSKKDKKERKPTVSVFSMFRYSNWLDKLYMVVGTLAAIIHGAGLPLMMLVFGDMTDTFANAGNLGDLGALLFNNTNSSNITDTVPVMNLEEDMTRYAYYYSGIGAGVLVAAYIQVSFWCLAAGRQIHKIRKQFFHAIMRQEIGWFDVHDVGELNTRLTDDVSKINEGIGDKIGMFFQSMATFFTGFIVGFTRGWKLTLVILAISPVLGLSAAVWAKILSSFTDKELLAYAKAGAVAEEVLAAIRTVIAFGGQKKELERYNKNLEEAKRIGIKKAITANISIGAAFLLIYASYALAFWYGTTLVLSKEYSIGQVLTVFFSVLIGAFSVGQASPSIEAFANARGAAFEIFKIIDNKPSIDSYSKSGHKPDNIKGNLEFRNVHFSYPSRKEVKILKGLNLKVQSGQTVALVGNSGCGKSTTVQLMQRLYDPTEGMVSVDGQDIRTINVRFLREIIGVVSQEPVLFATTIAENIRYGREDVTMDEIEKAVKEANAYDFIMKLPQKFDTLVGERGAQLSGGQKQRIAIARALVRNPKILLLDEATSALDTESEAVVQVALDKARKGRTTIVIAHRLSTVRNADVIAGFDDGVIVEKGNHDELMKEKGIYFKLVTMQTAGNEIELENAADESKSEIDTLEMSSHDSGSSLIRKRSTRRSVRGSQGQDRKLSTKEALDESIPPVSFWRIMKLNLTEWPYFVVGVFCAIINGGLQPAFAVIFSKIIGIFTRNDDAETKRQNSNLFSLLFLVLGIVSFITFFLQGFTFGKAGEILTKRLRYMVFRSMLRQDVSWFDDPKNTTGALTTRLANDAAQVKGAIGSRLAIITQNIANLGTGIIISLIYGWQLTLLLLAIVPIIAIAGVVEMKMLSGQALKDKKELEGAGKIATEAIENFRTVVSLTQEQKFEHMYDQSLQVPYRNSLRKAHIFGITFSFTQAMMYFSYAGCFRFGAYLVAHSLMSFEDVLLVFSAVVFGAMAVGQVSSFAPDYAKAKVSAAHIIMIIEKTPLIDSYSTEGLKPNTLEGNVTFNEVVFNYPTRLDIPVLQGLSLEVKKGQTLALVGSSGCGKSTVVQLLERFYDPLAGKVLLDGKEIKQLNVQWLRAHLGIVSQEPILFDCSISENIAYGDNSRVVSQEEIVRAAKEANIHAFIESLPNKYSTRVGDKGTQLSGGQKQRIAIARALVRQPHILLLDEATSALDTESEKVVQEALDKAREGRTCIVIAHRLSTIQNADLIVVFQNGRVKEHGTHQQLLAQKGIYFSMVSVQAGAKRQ
Sequence of rat Mdr1a (Q6PSM0 1-1272): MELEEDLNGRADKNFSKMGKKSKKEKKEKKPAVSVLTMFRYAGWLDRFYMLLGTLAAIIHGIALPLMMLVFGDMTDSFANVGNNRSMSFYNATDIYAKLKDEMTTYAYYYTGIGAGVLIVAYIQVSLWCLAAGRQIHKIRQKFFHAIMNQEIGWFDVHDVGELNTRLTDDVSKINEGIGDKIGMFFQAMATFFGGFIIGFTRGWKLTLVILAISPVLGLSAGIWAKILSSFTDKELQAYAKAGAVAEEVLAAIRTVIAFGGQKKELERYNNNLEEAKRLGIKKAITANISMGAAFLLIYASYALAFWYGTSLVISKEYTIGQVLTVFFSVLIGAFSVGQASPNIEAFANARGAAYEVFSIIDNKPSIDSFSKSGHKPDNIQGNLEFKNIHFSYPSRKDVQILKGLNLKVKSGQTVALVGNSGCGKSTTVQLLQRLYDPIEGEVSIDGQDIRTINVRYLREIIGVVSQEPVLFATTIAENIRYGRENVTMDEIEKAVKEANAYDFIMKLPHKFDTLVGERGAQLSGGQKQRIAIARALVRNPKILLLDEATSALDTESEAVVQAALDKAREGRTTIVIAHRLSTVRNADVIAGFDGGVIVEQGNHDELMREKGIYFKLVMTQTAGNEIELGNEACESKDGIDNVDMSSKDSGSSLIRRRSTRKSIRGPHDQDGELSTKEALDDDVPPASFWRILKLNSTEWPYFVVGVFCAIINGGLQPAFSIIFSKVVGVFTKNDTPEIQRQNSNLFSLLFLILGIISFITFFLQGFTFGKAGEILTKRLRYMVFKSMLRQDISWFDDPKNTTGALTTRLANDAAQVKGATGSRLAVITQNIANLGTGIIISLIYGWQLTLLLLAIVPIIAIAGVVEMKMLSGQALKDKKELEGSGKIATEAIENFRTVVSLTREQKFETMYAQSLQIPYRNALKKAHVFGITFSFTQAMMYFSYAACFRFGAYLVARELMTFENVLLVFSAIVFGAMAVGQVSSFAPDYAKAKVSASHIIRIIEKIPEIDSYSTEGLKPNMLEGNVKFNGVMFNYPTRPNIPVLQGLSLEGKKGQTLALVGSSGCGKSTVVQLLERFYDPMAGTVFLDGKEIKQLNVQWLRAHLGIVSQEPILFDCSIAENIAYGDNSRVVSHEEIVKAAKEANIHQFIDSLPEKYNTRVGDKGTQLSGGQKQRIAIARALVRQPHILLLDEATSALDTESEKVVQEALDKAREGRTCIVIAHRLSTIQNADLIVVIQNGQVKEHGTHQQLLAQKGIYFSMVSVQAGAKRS
Sequence of mouse Mdr1a (P21447 whole entry): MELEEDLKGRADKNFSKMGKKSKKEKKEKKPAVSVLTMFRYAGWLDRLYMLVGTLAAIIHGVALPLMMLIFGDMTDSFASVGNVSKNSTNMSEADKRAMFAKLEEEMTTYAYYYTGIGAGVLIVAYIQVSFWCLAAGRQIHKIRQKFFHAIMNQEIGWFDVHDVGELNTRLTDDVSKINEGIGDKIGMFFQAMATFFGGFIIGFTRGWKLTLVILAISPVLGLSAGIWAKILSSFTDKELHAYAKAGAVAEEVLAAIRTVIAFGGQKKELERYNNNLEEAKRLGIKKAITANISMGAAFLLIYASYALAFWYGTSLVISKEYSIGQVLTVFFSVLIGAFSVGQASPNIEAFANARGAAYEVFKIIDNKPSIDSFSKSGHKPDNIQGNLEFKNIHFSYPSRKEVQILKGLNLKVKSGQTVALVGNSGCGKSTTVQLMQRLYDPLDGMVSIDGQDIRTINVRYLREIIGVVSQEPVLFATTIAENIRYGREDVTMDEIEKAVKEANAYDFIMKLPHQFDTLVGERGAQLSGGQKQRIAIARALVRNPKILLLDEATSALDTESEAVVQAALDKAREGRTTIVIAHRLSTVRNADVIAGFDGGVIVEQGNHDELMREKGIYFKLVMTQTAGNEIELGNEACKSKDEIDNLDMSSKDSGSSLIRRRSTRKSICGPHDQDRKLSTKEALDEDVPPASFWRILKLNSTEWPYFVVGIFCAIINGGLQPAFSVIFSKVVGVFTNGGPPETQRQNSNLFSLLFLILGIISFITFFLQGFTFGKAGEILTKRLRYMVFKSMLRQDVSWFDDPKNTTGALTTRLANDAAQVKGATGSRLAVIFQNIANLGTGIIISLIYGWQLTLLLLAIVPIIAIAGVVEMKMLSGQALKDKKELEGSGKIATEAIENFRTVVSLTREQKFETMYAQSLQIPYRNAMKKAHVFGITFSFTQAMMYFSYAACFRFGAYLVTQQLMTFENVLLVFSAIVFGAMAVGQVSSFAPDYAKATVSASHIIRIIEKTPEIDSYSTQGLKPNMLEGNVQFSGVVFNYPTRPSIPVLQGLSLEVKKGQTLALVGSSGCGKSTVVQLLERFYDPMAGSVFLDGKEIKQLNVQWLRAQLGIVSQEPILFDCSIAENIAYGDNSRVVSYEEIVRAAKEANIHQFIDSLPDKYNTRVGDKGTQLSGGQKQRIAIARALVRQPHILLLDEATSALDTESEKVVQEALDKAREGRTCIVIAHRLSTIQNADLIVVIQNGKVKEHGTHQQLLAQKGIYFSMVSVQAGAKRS

For `N=C(N)NC(=O)Cc1c(Cl)cccc1Cl` [Guanfacine], the efflux ratio at 120 min, 1 µM in data set [1] stood at 0.63 ± 0.06; at human MDR1, 2.04 ± 0.21; at cynomolgus monkey Mdr1, 0.65 ± 0.11; on rat Mdr1a, 0.97 ± 0.12; on mouse Mdr1a, 1.62 ± 0.16; on human BCRP, 0.32 ± 0.08.

In the case of `O=C(CCCN1CCC(O)(c2ccc(Cl)cc2)CC1)c1ccc(F)cc1` [Haloperidol], the efflux ratio at 120 min, 1 µM was 0.74 ± 0.1 in data set [1]; 0.89 ± 0.22 at human MDR1; 0.8 ± 0.22 on cynomolgus monkey Mdr1; 0.85 ± 0.15 on rat Mdr1a; 0.72 ± 0.11 at mouse Mdr1a; 0.72 ± 0.1 at human BCRP.

For `Cc1ccc(NC(=O)c2ccc(CN3CCN(C)CC3)cc2)cc1Nc1nccc(-c2cccnc2)n1` [Imatinib], the efflux ratio at 120 min, 1 µM in data set [1] was 0.99 ± 0.11; on human MDR1, 60.2 ± 4.74; at cynomolgus monkey Mdr1, 10.5 ± 0.6; on rat Mdr1a it was 29.1 ± 1.26; at mouse Mdr1a, 23.1 ± 1.52; on human BCRP, 49.2 ± 0.99.

`CN(C)CCCN1c2ccccc2CCc2ccccc21` [Imipramine]: the efflux ratio at 120 min, 1 µM is 0.62 ± 0.04 in data set [1]; 1.08 ± 0.05 at human MDR1; 0.82 ± 0.09 on cynomolgus monkey Mdr1; 0.83 ± 0.08 at rat Mdr1a; 0.9 ± 0.05 on mouse Mdr1a; 0.6 ± 0.06 on human BCRP.

Regarding `CC(C)(C)NC(=O)[C@@H]1CN(Cc2cccnc2)CCN1C[C@@H](O)C[C@@H](Cc1ccccc1)C(=O)N[C@H]1c2ccccc2C[C@H]1O` [Indinavir], the efflux ratio at 120 min, 1 µM in data set [1] stood at 0.93 ± 0.31; at human MDR1, 33.2 ± 1.69; at cynomolgus monkey Mdr1 it was 34.8 ± 10.4; on rat Mdr1a it was 10.9 ± 1.21; on mouse Mdr1a it was 11.2 ± 2.53; on human BCRP it was 29.7 ± 3.69.

For the compound `CCN(CC)CCNC(=O)c1cc(Cl)c(N)cc1OC` [Metoclopramide], the efflux ratio at 120 min, 1 µM is 0.85 ± 0.07 in data set [1]; 5.55 ± 0.43 at human MDR1; 1.44 ± 0.14 at cynomolgus monkey Mdr1; 3.02 ± 0.28 at rat Mdr1a; 2.55 ± 0.21 on mouse Mdr1a; 2.42 ± 0.33 on human BCRP.

For `COCCc1ccc(OCC(O)CNC(C)C)cc1` (stereo not drawn) [Metoprolol], the efflux ratio at 120 min, 1 µM in data set [1] came to 0.74 ± 0.05; at human MDR1, 1.53 ± 0.15; at cynomolgus monkey Mdr1, 0.74 ± 0.05; on rat Mdr1a it was 0.97 ± 0.11; at mouse Mdr1a, 0.92 ± 0.08; on human BCRP it was 0.71 ± 0.11.

As for `Cc1cccc(C)c1OCC(C)N` (stereo not drawn) [Mexiletine], the efflux ratio at 120 min, 1 µM in data set [1] was determined as 0.36 ± 0.05; at human MDR1 it was 0.44 ± 0.03; at cynomolgus monkey Mdr1, 0.51 ± 0.15; on rat Mdr1a it was 0.42 ± 0.08; on mouse Mdr1a, 0.64 ± 0.16; on human BCRP, 0.71 ± 0.05.

As to `Cc1ncc2n1-c1ccc(Cl)cc1C(c1ccccc1F)=NC2` [Midazolam], the efflux ratio at 120 min, 1 µM amounted to 0.43 ± 0.04 in data set [1]; 0.53 ± 0.03 at human MDR1; 0.43 ± 0.05 on cynomolgus monkey Mdr1; 0.28 ± 0.06 on rat Mdr1a; 0.4 ± 0.06 on mouse Mdr1a; 0.57 ± 0.06 at human BCRP.

As for `O=C1c2c(O)ccc(O)c2C(=O)c2c(NCCNCCO)ccc(NCCNCCO)c21` [Mitoxantrone], the efflux ratio at 120 min, 1 µM was 1.15 ± 0.14 in data set [1]; 5.66 ± 0.54 at human MDR1; 40.3 ± 2.47 at cynomolgus monkey Mdr1; 17.6 ± 1.56 on rat Mdr1a; 28.6 ± 4.05 at mouse Mdr1a; 55.6 ± 10.8 on human BCRP.

For `CC(=O)O[C@H]1C(=O)[C@@]2(C)[C@H]([C@H](OC(=O)c3ccccc3)[C@]3(O)C[C@H](OC(=O)[C@H](O)[C@@H](NC(=O)c4ccccc4)c4ccccc4)C(C)=C1C3(C)C)[C@]1(OC(C)=O)CO[C@@H]1C[C@@H]2O` [Paclitaxel], the efflux ratio at 120 min, 1 µM was found to be 2.52 ± 0.51 in data set [1]; 40.2 ± 12.6 on human MDR1; 33.4 ± 5.69 on cynomolgus monkey Mdr1; 82.9 ± 41.1 at rat Mdr1a; 57.7 ± 17 at mouse Mdr1a; 63.8 ± 28.5 at human BCRP.

As to `Cc1nc2n(c(=O)c1CCN1CCC(c3noc4cc(F)ccc34)CC1)CCCC2O` (stereo not drawn) [Paliperidone], the efflux ratio at 120 min, 1 µM in data set [1] was found to be 0.79 ± 0.1; on human MDR1 it was 19.8 ± 2.06; on cynomolgus monkey Mdr1, 2.47 ± 0.41; on rat Mdr1a, 6.06 ± 1.45; on mouse Mdr1a, 8.26 ± 0.88; at human BCRP, 5.82 ± 1.79.

On to `CN(C)CCC(c1ccccc1)c1ccccn1` (stereo not drawn) [Pheniramine], for which the efflux ratio at 120 min, 1 µM worked out at 0.78 ± 0.04 in data set [1]; 1.45 ± 0.05 on human MDR1; 0.99 ± 0.02 at cynomolgus monkey Mdr1; 1.09 ± 0.03 on rat Mdr1a; 1.1 ± 0.1 on mouse Mdr1a; 1.02 ± 0.03 on human BCRP.

As to `COc1cc2nc(N3CCN(C(=O)c4ccco4)CC3)nc(N)c2cc1OC` [Prazosin], the efflux ratio at 120 min, 1 µM in data set [1] amounted to 0.72 ± 0.03; on human MDR1 it was 9.35 ± 0.45; at cynomolgus monkey Mdr1 it was 2.42 ± 0.15; at rat Mdr1a, 6.5 ± 0.22; on mouse Mdr1a it was 5.14 ± 0.39. In addition, the “ER in MDCKII BCRP” value on human BCRP (1 µM, 120 min, mean ± SD) amounted to 14.79 ± 1.68.

`C[C@]12C=CC(=O)C=C1CC[C@@H]1[C@@H]2C(=O)C[C@@]2(C)[C@H]1CC[C@]2(O)C(=O)CO` [Prednisone]: the efflux ratio at 120 min, 1 µM in data set [1] turned out to be 0.82 ± 0.11; at human MDR1, 17.3 ± 2.38; on cynomolgus monkey Mdr1, 4.41 ± 0.52; at rat Mdr1a, 9.6 ± 1.82; on mouse Mdr1a, 6.6 ± 0.57; at human BCRP, 1.33 ± 0.1.

Take `CC(C)NCC(O)COc1cccc2ccccc12` (stereo not drawn) [Propranolol]: the efflux ratio at 120 min, 1 µM in data set [1] was found to be 0.54 ± 0.06; on human MDR1, 0.88 ± 0.08; at cynomolgus monkey Mdr1, 0.66 ± 0.06; at rat Mdr1a, 0.73 ± 0.08; at mouse Mdr1a, 0.92 ± 0.1; on human BCRP, 0.71 ± 0.15.

For the compound `CNC(=C[N+](=O)[O-])NCCSCc1ccc(CN(C)C)o1` [Ranitidine], the efflux ratio at 120 min, 1 µM was 0.91 ± 0.06 in data set [1]; 2.89 ± 0.15 at human MDR1; 2.14 ± 0.25 on cynomolgus monkey Mdr1; 2.63 ± 0.19 at rat Mdr1a; 2.09 ± 0.3 at mouse Mdr1a; 10.3 ± 0.96 at human BCRP.

As to `CN[C@H]1CC[C@@H](c2ccc(Cl)c(Cl)c2)c2ccccc21` [Sertraline], the efflux ratio at 120 min, 1 µM worked out at 3.57 ± 0.3 in data set [1]; 3.1 ± 0.34 at human MDR1; 5.65 ± 0.81 at cynomolgus monkey Mdr1; 2.74 ± 0.28 at rat Mdr1a; 2.93 ± 0.43 on mouse Mdr1a; 3.7 ± 0.67 on human BCRP.

As for `Nc1c2c(nc3ccccc13)CCCC2` [Tacrine], the efflux ratio at 120 min, 1 µM is 0.81 ± 0.02 in data set [1]; 0.93 ± 0.04 at human MDR1; 0.83 ± 0.02 on cynomolgus monkey Mdr1; 0.88 ± 0.02 at rat Mdr1a; 0.99 ± 0.03 on mouse Mdr1a; 1.19 ± 0.07 at human BCRP.

Regarding `CC/C(=C(\c1ccccc1)c1ccc(OCCN(C)C)cc1)c1ccccc1` [Tamoxifen], the efflux ratio at 120 min, 1 µM in data set [1] was 2.25 ± 1.24; on human MDR1, 1.65 ± 0.24; at cynomolgus monkey Mdr1 it was 1.81 ± 0.51; on rat Mdr1a it was 1.61 ± 0.18; at mouse Mdr1a, 2.26 ± 0.76; on human BCRP, 0.81 ± 0.14.

Consider `CC(C)(C)c1ccc(C(O)CCCN2CCC(C(O)(c3ccccc3)c3ccccc3)CC2)cc1` (stereo not drawn) [Terfenadine], for which the efflux ratio at 120 min, 1 µM in data set [1] turned out to be 0.88 ± 0.06; on human MDR1, 10.7 ± 0.78; at cynomolgus monkey Mdr1 it was 0.92 ± 0.14; on rat Mdr1a it was 1.29 ± 0.14; at mouse Mdr1a, 2.64 ± 0.33; on human BCRP, 2.96 ± 0.31.

As for `O=c1n(CCCN2CCN(c3cccc(Cl)c3)CC2)nc2ccccn12` [Trazodone], the efflux ratio at 120 min, 1 µM in data set [1] amounted to 2.66 ± 0.59; at human MDR1, 1.71 ± 0.34; on cynomolgus monkey Mdr1 it was 1.5 ± 0.1; on rat Mdr1a, 1.4 ± 0.16; at mouse Mdr1a it was 0.98 ± 0.24; on human BCRP, 0.86 ± 0.11.
